Measured values from PubChem BioAssay AID504765 (Sanford-Burnham Center for Chemical Genomics, 2011).
Active and inactive are the calls of the source. No rule for the calls is given here.

Biological target: glucose-6-phosphate dehydrogenase-6-phosphogluconolactonase (Plasmodium falciparum 3D7)
Test: concentration-dependent PfGluPho enzyme inhibition – biochemical, fluorescence intensity, dose response (AID 504765)
Details: Recombinant PfG6PD enzyme, fluorescence intensity (NADPH)

SMILES	IC50
CCOc1ccc(N(CC(=O)N/N=C/c2cc([N+](=O)[O-])ccc2Cl)S(C)(=O)=O)cc1	15.1 µM
Cc1cccc(C2(c3cccc(C)c3)CC2C(=O)Nc2ccc([N+](=O)[O-])cc2O)c1 (stereo not drawn)	13.2 µM
CSc1nnc(NC(=O)c2ccc3c(c2)OCO3)s1	2.82 µM
COc1cc(CN2CCN(CCCc3ccccc3)C(CCO)C2)cc(OC)c1O (stereo not drawn)	7.68 µM
C=CCSc1nnc(NC(=O)c2ccc(Cl)nc2)s1	4.05 µM
OCCN1CCN(C(=S)c2ccc(Cl)c(Cl)c2)CC1	12.5 µM
CCOc1ccc(S(=O)(=O)Nc2cc(SCC(=O)O)c(O)c3ccccc23)cc1	2.47 µM
CCC(C)c1ccccc1OCCn1ccnc1 (stereo not drawn)	3.39 µM
Cc1[nH]c2ccccc2c1/C=N/Nc1nncn1N	5.61 µM
c1nc(SSc2ncnc3nc[nH]c23)c2[nH]cnc2n1	4.78 µM
CCN1CCCC1CNC(=O)c1ccc2c(c1)NC(=O)/C(=C\c1ccc(C)cc1)S2 (stereo not drawn)	3.16 µM
CC(=O)Nc1cc([N+](=O)[O-])ccc1OCc1ccccc1	19.8 µM
O=C(OCC(=O)c1ccc([N+](=O)[O-])cc1)/C(=C\c1ccc(Cl)cc1)NC(=O)c1ccccc1	inactive
Cc1cccc(C(=O)Nc2nnc(S(=O)(=O)N3CCCCCC3)s2)c1	6.58 µM
Cc1ccc(NC(=O)c2cc(N3C(=O)C=CC3=O)ccc2N2CCOCC2)cc1Cl	12.2 µM
COc1ccc(-n2c(=S)[nH]c3c(sc(=S)n3-c3ccccc3)c2=O)c(OC)c1	inactive
COc1ccc(CCn2c(NN=C3CCCC3)nc3c2c(=O)[nH]c(=O)n3C)cc1	9.56 µM
COC1=C(OC)C(=O)C(Sc2ccc3ccccc3c2)=CC1=O	0.781 µM
CC(=O)c1cccc(NC(=O)c2cnn(-c3ccccc3)c2C)c1	8.46 µM
COc1ccc(-n2sc3ccccc3c2=O)cc1	1.49 µM
Clc1cccc(Cl)c1CNc1ccc(N2CCCC2)cc1	3.79 µM
O=S(=O)(Nc1ccccc1F)c1cccc(NC(=S)NCCN2CCOCC2)c1	7.87 µM
CCOc1cc(CNc2ccc(N3CCCC3)cc2)cc(Cl)c1OC	3.87 µM

SMILES	IC50
CCc1cc(-c2n[nH]c(C)c2-c2nc3ccccc3n2C)c(O)cc1O	inactive
COc1cc(C(=O)O/N=C2\C=CC(=O)C=C2C)cc(OC)c1OC	14.1 µM
COC(=O)CCC(=O)OC1(C)C(=O)C2=CN(C3CC3)C(c3ccc(OC)cc3)=CC2=C(Br)C1=O (stereo not drawn)	2.46 µM
CCCNC(=O)Cn1sc2nc(C)cc(C)c2c1=O	3.13 µM
Cn1sc2ccccc2c1=O	5.82 µM
CN(C)c1ccc(C=c2c3cc([N+](=O)[O-])ccc3n3c2cc(-c2ccccc2)[n+]3C)cc1	8.44 µM
Cc1cc(SCC(=O)N/N=C/c2ccco2)nc2ccccc12	8.11 µM
CC(NC1=CC(=O)c2cccnc2C1=O)C(O)c1ccccc1 (stereo not drawn)	4.03 µM
CCCCCCCCSC1=CC(=O)C(OC)=C(OC)C1=O	1.71 µM
COc1cc(C(=O)O/N=C2/C=C(C)C(=O)C=C2C)cc(OC)c1OC	11.6 µM
Cc1ccc(NC(=O)Cn2sc3nc(C)cc(C)c3c2=O)c(Cl)c1	2.09 µM
C=C1C(=O)O[C@@H]2C[C@@H](C)[C@@H]3C=CC(=O)[C@@]3(C)[C@@H](OC(=O)CC(=O)O[C@H]3[C@@H]4C(=C)C(=O)O[C@@H]4C[C@@H](C)[C@@H]4C=CC(=O)[C@]43C)[C@H]12	13.3 µM
COc1cc(/C=N/Nc2nncn2N)ccc1OCc1c(C)no[n+]1[O-]	8.92 µM
O=C(CCc1ccc(S(=O)(=O)N2CCOCC2)cc1)N/N=C/c1ccc(O)c(O)c1O	5.82 µM
O=c1c2ccccc2sn1-c1ccccc1	1.15 µM
Cc1ccccc1OCC(=O)NCC(=O)OCC(=O)c1ccc([N+](=O)[O-])cc1	17.2 µM
Cc1cc(O)c(-c2cc(O)c(C)cc2O)cc1O	1.88 µM
O=c1c2ccccc2sn1-c1cc(S(=O)(=O)N2CCOCC2)ccc1N1CCCC1	1.08 µM
CC(=O)Nc1ccc(S(=O)(=O)/N=C2\C(=O)c3ccccc3C([O-])=C2n2cc[n+](-c3ccccn3)c2)cc1	12.9 µM
OCc1ccccc1SSc1ccccc1CO	16.5 µM
CC(=O)Nc1ccc(S(=O)(=O)NNc2cccc(C)c2)cc1	inactive
Cc1ccc(C)c(-n2sc3ccc(F)cc3c2=O)c1	1.24 µM
CC(=O)Nc1cc(OC(C)=O)c2nonc2c1OC(C)=O	11.9 µM

SMILES	IC50
Cc1[nH]c2ccccc2c1/C=N/NC(=O)c1cccc(S(=O)(=O)Nc2ccccc2Cl)c1	8.71 µM
O=C(CBr)c1ccc([N+](=O)[O-])c(CS(=O)(=O)c2ccc(Cl)cc2)c1	10.5 µM
O=C(O)CSc1cc(NS(=O)(=O)c2cccc([N+](=O)[O-])c2)c2ccccc2c1O	1.34 µM
COc1cccc(C(=O)Nc2nnc(C(C)C)s2)c1	5.83 µM
O=C(Nc1ccc(N2CCN(C(=O)c3ccco3)CC2)c(Cl)c1)c1cc2ccccc2o1	10.3 µM
COC(=O)[C@H](CCSC)NC(=O)c1cc2c(cn1)[nH]c1ccccc12	inactive
C/C(Cn1nnc([N+](=O)[O-])n1)=N\NC(=O)c1ccccc1O	7.39 µM
COc1c(O)c(O)c2oc(-c3ccccc3)cc(=O)c2c1OC	10.6 µM
c1cncc(CNc2ccc3c(c2)OCO3)c1	13.9 µM
O=C(Nc1nnc(S(=O)(=O)N2CCCCC2)s1)c1cccc(Br)c1	6.37 µM
COc1cc(/C=N/n2cc(-c3ccccc3)[nH]c2=S)cc(OC)c1O	19.6 µM
CN(C)c1cccc2c1c(NC(=O)c1ccc(Cl)cc1)nn2C	8.65 µM
Cc1ccccc1-n1sc2cc(F)ccc2c1=O	2.15 µM
CN1CC[C@@]2(C)c3cc(O)ccc3N(C)[C@@H]12	1.52 µM
C[n+]1c(-c2ccccc2)cc2c(=Cc3ccc([N+](=O)[O-])cc3)c3ccccc3n21	inactive
CCN1CCCC1CNC(=O)c1ccc2c(c1)NC(=O)/C(=C\c1ccccc1Cl)S2 (stereo not drawn)	3.08 µM
O=[N+]([O-])c1ccc2c(c1)-c1ccccc1C2O (stereo not drawn)	2.46 µM
CC1CCc2[nH]c3ccc(C(=O)N(C)CC(=O)Nc4ccccc4C(F)(F)F)cc3c2C1 (stereo not drawn)	5.61 µM
Cn1c(=O)[nH]c(=O)c2c1nc(SCCN1CCCCC1)n2CCCc1ccccc1	14.2 µM
Cc1ccc(NC(=O)c2cc(N3C(=O)C=CC3=O)ccc2Cl)cc1C	14.1 µM
C=CCc1c(C)[nH]c(=S)c(C#N)c1C	15.3 µM
O=C(CNC(=O)c1ccccc1)NCC(=O)OCC(=O)c1ccc([N+](=O)[O-])cc1	inactive
c1ccc(-c2nc(N3CCOCC3)s[n+]2-c2ccccc2)cc1	3.97 µM

SMILES	IC50
Cc1cc(C)c2c(=O)n(CC(=O)Nc3cccc(F)c3)sc2n1	1.89 µM
c1ccc(OCc2nnc3n2N=C(c2ccccc2)CS3)cc1	17.1 µM
O=C(CN1C(=O)C2C3C=CC(C3)C2C1=O)OCC(=O)c1ccc([N+](=O)[O-])cc1 (stereo not drawn)	9.71 µM
CC(CNc1ccccc1O)C(=O)O (stereo not drawn)	6.16 µM
COc1cc(/C=C/C(=O)c2ccc([N+](=O)[O-])o2)ccc1O	5.16 µM
COc1ccccc1N1C(=O)C=C(Sc2nc(C)cc(C)n2)C1=O	7.18 µM
CCOC(=O)Cc1cc(=O)n2[nH]c(C(C)(C)C)cc2n1	7.04 µM
O=C(O)c1ccccc1NS(=O)(=O)c1cccc(-n2sc3ccccc3c2=O)c1	5.54 µM
COc1ccc(Nc2cc(C)c3c(O)cccc3n2)cc1	5.06 µM
COc1cc(N)c2ncccc2c1SC	inactive
O=C(Nc1nnc(S(=O)(=O)N2CCOCC2)s1)c1ccc(F)cc1	11.4 µM
O=C1C(=Cc2cccc(O)c2O)SC(=S)N1CCCN1CCOCC1	14.1 µM
COc1cccc(C(=O)Nc2nnc(S(=O)(=O)N(C)Cc3ccccc3)s2)c1	4.04 µM
CCOC(=O)CSc1nnc(NC(=O)c2cccc([N+](=O)[O-])c2)s1	6.49 µM
Cn1c(=O)c2[nH]c(-c3ccccc3)c(O)c2n(C)c1=O	9.54 µM
CN1CCN(C(=S)C(=O)Nc2ccc(Br)cc2)CC1	7.26 µM
Cc1cccc(OCC(=O)NCC(=O)N/N=C/c2ccccc2)c1	9.37 µM
Cc1cc(NC(=O)c2oc3ccccc3c2C)ccc1-n1cnnn1	4.54 µM
Cc1ccc(S(=O)(=O)SCCCSS(=O)(=O)c2ccc(C)cc2)cc1	4.64 µM
Oc1ccc(C23CC4CC(CC(C4)C2)C3)cc1O	inactive
COc1cccc(C=Nc2cc(C(C)C)c(O)cc2C)c1O	5.48 µM
O=[N+]([O-])c1c(NCCO)cc(Sc2nc3ccccc3s2)c2nonc12	10.2 µM
CC1=NOC(=O)/C1=C\c1ccc(-c2ccccc2Br)o1	inactive

SMILES	IC50
CCNc1cc2c(cc1O)CCC1C2CCC2(C)C(O)CCC12 (stereo not drawn)	inactive
CC1(OC(=O)C2CCCC2)C(=O)C=C2C=C(c3ccsc3)N(CCc3c[nH]c4ccccc34)C=C2C1=O (stereo not drawn)	4.97 µM
Cc1ccc(S(=O)(=O)N(C(=O)c2ccncc2)c2ccc(OC(=O)c3ccncc3)c3ccccc23)cc1	17.7 µM
CCN(CC)CCNC(=O)CCCCn1c(=S)[nH]c2c([nH]c3ccc(OC)cc32)c1=O	inactive
CCn1c([N+](=O)[O-])nc2c1c(=O)[nH]c(=O)n2C	12.2 µM
COc1cc(N)c2ncsc2c1	15.5 µM
O=C(O)C(Cc1ccccc1)N1C(=O)C=CC1=O (stereo not drawn)	6.01 µM
CCOc1cc(NCc2ccccc2)c2ncn(C(C)C)c2c1	> 80 µM (inactive)
CC(C)(C)c1ccc(O)c(O)c1	inactive
CCOC(=O)Nc1ccc(NCc2ccc(F)cc2)nc1N	3 µM
Cc1ccc(NC(=O)c2ccc(Cl)c(N3C(=O)C=CC3=O)c2)cc1	7.52 µM
CN1CCN(C(=O)c2sc(=S)n(-c3ccccc3)c2N)CC1	7.25 µM
N#Cc1c(C#N)c(SSc2c(C#N)c(C#N)c(N)n2-c2ccccc2)n(-c2ccccc2)c1N	1.41 µM
CC(NC(=O)c1sc2cc([N+](=O)[O-])ccc2c1Cl)C(C)(C)C (stereo not drawn)	18.5 µM
O=C(Cn1sc2ccccc2c1=O)Nc1ccccc1	1.97 µM
O=C(Cc1ccccc1)NCC(=O)OCC(=O)c1ccc([N+](=O)[O-])cc1	10.6 µM
O=C1C=CC(=O)N1CCCCCCCCCCN1C(=O)C=CC1=O	13.5 µM
Cc1ccc(S(=O)(=O)SC/C=C/CSS(=O)(=O)c2ccc(C)cc2)cc1	10.3 µM
COc1ccc(C(=O)Nc2nnc(S(=O)(=O)N3CCOCC3)s2)cc1	7 µM
O=C(Cn1sc2ccccc2c1=O)Nc1ccc(Cl)cc1	3.26 µM
CC1(C)Cc2c(sc3nc4n(-c5ccccc5)c(=O)c(CCC(=O)O)nn4c(=O)c23)CO1	4.1 µM
